Test results: US20210251963A1, “UREA DERIVATIVES FOR USE IN THE TREATMENT OF SUBJECTS WITH ELEVATED EXPRESSION AND/OR ACTIVITY OF SRPK1” (Scandion Oncology A/S, priority 2018, published 2021)

Columns and labels:
Assay in all cases: Premier Screen kinase activity screening (33P ATP filter binding)
Assay type in all cases: biochemical
Conditions in all cases: 10 μM SCO-101, mean of assay duplicates, read-out: Kinase activity (percentage of DMSO control)
[1] = target: T1, PKCz (Homo sapiens, UniProt Q05513)
T1 construct: MRC Dundee (screening service)
Source text: (§1) The kinase activity screening was done at MRC in Dundee. The screen was a so-called “Premier Screen” with 140 kinases. More specific information can be found here: http://www.kinase-screen.mrc.ac.uk/services/premier-screen
(§2) The method is based on a radioactive filter binding assay using 33P ATP (Hastie, et al 2006. Nat Protoc. 2006; 1(2):968-71; Bain, et al 2007. Biochem J. 2007 Dec. 15; 408(3):297-315). This method is sensitive, accurate and provides a direct measure of kinase enzyme activity. A concentration of 10 μM SCO-101 was used.
(§3) In the table below, the data is portrayed as the mean percentage activity of assay duplicates and a standard deviation. These percentage activities were calculated in comparison to DMSO controls. 10 μM SCO-101 reduced the activity of SRPK1 to 6% of the DMSO control.

[2] = target: T2, ROCK 2 (Rattus norvegicus, UniProt Q62868)
T2 construct: MRC Dundee (screening service)
Source text: as §1, §2, §3

[3] = target: T3, MELK (Homo sapiens, UniProt Q14680)
T3 construct: MRC Dundee (screening service)
Source text: as §1, §2, §3

[4] = target: JAK3 (Homo sapiens, UniProt P52333)
Source text: as §1, §2, §3

[5] = target: EPH-B3 (Homo sapiens, UniProt P54753)
Source text: as §1, §2, §3

[6] = target: T4, NEK2a (Homo sapiens, UniProt P51955)
T4 construct: purchased MRC in Dundee (Premier Screen service)
Source text: as §1, §2, §3

[7] = target: T5, SGK1 (Homo sapiens, UniProt O00141, S422D)
T5 construct: purchased MRC Dundee, Premier Screen (contract screening service)
Source text: as §1, §2, §3

[8] = target: T6, p38g MAPK (Homo sapiens, UniProt P53778)
T6 construct: purchased MRC Dundee, Premier Screen (contract screening service)
Source text: as §1, §2, §3

[9] = target: T7, EF2K (Homo sapiens, UniProt O00418)
T7 construct: MRC Dundee (screening service)
Source text: as §1, §2, §3

[10] = target: T8, GSK3b (Homo sapiens, UniProt P49841)
T8 construct: MRC Dundee (screening service)
Source text: as §1, §2, §3

[11] = target: T9, MARK1 (Homo sapiens, UniProt Q9P0L2)
T9 construct: purchased MRC in Dundee (Premier Screen service)
T9 sequence (Q9P0L2 whole entry, species assumed): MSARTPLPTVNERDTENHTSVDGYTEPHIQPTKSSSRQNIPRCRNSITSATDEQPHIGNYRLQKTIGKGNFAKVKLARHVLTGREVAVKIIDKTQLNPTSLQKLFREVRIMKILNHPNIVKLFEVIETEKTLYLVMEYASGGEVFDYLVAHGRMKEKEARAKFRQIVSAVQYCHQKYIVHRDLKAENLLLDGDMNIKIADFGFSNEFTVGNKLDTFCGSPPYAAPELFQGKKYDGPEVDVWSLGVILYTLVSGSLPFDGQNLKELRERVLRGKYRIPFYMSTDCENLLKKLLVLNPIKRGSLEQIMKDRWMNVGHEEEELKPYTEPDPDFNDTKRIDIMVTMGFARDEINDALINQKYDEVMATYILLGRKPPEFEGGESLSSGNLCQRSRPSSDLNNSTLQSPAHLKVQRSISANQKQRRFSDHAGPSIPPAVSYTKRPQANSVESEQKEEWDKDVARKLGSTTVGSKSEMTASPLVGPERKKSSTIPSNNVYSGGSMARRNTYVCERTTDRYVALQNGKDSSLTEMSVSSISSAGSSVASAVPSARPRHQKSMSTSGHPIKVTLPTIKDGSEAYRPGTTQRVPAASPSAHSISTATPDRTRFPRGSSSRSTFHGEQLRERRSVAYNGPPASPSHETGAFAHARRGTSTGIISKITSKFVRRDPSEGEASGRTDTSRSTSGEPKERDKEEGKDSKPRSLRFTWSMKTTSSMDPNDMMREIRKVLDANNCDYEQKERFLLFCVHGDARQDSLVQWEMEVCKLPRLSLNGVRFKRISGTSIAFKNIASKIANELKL
Source text: as §1, §2, §3

[12] = target: T10, DYRK3 (Homo sapiens, UniProt O43781)
T10 construct: purchased MRC in Dundee (Premier Screen service)
T10 sequence (O43781 whole entry, species assumed): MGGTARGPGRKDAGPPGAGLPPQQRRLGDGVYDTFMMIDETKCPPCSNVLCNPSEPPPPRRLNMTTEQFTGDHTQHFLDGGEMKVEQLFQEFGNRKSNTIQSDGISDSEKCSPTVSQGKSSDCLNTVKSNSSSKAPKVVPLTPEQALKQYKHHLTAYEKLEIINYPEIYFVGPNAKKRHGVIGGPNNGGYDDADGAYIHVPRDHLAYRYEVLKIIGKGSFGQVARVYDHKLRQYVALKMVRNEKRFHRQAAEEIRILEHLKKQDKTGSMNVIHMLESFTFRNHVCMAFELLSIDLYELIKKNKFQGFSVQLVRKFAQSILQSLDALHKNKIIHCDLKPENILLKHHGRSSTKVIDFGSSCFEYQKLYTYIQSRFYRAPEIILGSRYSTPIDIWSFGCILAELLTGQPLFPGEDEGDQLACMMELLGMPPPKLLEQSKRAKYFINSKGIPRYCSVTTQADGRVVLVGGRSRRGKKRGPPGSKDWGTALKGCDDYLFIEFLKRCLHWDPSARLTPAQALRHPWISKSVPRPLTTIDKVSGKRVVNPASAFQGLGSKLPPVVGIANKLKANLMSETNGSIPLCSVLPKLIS
Source text: as §1, §2, §3

[13] = target: T11, S6K1 (Homo sapiens, UniProt P23443)
T11 construct: MRC in Dundee (screening service)
Source text: as §1, §2, §3

[14] = target: T12, PAK4 (Homo sapiens, UniProt O96013)
T12 construct: purchased MRC in Dundee (Premier Screen service)
T12 sequence (O96013 whole entry, species assumed): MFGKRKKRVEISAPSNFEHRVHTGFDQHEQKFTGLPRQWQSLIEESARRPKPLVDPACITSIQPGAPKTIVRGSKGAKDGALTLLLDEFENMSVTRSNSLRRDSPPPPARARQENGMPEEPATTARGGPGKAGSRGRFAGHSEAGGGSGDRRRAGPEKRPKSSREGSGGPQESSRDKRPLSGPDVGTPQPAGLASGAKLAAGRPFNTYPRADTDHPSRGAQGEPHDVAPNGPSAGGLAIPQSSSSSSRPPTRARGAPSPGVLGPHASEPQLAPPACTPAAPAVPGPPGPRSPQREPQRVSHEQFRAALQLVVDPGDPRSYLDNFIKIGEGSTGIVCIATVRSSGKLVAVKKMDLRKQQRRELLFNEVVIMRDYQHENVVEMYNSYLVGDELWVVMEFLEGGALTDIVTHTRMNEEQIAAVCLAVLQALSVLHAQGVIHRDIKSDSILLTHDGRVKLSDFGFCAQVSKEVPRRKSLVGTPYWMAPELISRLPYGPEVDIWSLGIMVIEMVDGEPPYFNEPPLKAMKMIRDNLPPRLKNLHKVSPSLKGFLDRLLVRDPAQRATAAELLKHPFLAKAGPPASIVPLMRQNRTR
Source text: as §1, §2, §3

[15] = target: T13, SmMLCK (Homo sapiens, UniProt Q15746)
T13 construct: purchased MRC in Dundee (Premier Screen service)
Source text: as §1, §2, §3

[16] = target: T14, MSK1 (Homo sapiens, UniProt O75582)
T14 construct: MRC Dundee (screening service)
T14 sequence (O75582 whole entry, species assumed): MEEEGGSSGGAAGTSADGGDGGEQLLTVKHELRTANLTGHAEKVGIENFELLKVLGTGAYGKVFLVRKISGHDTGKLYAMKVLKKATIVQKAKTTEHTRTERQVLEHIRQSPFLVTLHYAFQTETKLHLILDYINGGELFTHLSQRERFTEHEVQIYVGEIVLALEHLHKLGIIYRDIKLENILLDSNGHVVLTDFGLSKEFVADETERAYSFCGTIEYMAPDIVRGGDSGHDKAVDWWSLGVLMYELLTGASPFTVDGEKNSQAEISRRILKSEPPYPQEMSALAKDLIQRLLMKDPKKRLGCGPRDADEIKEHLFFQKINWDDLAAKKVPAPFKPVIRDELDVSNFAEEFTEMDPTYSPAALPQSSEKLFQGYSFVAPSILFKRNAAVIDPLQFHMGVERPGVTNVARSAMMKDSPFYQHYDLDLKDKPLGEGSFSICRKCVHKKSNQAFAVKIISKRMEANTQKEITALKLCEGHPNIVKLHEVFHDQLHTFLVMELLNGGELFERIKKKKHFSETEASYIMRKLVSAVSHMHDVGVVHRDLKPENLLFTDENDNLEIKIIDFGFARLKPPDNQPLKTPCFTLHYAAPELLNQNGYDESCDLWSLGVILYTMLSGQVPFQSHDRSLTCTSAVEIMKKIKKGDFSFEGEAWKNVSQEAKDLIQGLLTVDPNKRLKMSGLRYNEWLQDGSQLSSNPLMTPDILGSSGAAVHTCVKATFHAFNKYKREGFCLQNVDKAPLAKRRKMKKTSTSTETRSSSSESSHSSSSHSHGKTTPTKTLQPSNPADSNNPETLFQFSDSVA
Source text: as §1, §2, §3

[17] = target: CDK2-Cyclin A (Homo sapiens, UniProt P24941)
Source text: as §1, §2, §3

[18] = target: IRAK1 (Homo sapiens, UniProt P51617)
Source text: as §1, §2, §3

[19] = target: T15, CAMK1 (Homo sapiens, UniProt Q14012)
T15 construct: purchased MRC in Dundee (Premier Screen service)
Source text: as §1, §2, §3

[20] = target: T16, PKCγ (Homo sapiens, UniProt P05129)
T16 construct: MRC Dundee (screening service)
Source text: as §1, §2, §3

[21] = target: ERK2 (Homo sapiens, UniProt P28482)
ERK2, sequence (P28482 whole entry, species assumed): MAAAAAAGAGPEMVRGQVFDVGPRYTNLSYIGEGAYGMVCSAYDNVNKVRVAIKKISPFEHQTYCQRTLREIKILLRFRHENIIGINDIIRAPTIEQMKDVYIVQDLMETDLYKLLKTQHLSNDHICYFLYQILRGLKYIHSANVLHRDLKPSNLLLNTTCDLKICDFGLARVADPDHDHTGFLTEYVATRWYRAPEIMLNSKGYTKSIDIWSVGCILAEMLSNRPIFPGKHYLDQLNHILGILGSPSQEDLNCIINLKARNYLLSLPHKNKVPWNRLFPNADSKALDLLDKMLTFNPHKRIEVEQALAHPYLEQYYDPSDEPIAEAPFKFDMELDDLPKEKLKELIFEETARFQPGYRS
Source text: as §1, §2, §3

[22] = target: T17, MKK6 (Homo sapiens, UniProt P52564)
T17 construct: purchased MRC Dundee, Premier Screen (contract screening service)
T17 sequence (P52564 whole entry, species assumed): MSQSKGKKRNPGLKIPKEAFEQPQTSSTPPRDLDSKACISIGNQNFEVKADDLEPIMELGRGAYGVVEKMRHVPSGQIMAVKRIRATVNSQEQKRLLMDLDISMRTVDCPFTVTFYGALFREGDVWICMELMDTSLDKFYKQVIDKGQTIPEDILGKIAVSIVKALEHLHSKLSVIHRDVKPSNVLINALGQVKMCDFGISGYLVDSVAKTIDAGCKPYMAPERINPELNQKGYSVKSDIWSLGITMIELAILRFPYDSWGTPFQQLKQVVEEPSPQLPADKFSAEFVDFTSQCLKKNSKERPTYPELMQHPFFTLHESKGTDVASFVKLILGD
Source text: as §1, §2, §3

[23] = target: T18, PKA (Homo sapiens, UniProt P17612)
T18 construct: purchased MRC Dundee, Premier Screen (contract screening service)
Source text: as §1, §2, §3

[24] = target: T19, CHK1 (Homo sapiens, UniProt O14757)
T19 construct: purchased MRC in Dundee (Premier Screen service)
Source text: as §1, §2, §3

[25] = target: T20, PKBa (Homo sapiens, UniProt P31749)
T20 construct: purchased MRC in Dundee (Premier Screen service)
T20 sequence (P31749 whole entry): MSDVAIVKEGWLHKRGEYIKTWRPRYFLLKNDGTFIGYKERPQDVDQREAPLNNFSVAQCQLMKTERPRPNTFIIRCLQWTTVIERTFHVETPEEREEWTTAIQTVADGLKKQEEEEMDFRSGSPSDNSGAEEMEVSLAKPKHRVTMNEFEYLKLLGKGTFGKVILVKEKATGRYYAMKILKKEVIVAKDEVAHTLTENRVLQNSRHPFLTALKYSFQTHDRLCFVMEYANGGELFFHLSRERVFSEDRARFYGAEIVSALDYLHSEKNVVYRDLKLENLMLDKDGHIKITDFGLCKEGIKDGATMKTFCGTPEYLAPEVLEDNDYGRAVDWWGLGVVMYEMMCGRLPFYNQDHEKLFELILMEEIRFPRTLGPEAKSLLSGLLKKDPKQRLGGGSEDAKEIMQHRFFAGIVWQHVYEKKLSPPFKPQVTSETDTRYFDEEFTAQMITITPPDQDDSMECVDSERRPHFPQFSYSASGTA
Source text: as §1, §2, §3

[26] = target: T21, EPH-A2 (Homo sapiens, UniProt P29317)
T21 construct: purchased MRC in Dundee (Premier Screen service)
T21 sequence (P29317 24-976, species assumed): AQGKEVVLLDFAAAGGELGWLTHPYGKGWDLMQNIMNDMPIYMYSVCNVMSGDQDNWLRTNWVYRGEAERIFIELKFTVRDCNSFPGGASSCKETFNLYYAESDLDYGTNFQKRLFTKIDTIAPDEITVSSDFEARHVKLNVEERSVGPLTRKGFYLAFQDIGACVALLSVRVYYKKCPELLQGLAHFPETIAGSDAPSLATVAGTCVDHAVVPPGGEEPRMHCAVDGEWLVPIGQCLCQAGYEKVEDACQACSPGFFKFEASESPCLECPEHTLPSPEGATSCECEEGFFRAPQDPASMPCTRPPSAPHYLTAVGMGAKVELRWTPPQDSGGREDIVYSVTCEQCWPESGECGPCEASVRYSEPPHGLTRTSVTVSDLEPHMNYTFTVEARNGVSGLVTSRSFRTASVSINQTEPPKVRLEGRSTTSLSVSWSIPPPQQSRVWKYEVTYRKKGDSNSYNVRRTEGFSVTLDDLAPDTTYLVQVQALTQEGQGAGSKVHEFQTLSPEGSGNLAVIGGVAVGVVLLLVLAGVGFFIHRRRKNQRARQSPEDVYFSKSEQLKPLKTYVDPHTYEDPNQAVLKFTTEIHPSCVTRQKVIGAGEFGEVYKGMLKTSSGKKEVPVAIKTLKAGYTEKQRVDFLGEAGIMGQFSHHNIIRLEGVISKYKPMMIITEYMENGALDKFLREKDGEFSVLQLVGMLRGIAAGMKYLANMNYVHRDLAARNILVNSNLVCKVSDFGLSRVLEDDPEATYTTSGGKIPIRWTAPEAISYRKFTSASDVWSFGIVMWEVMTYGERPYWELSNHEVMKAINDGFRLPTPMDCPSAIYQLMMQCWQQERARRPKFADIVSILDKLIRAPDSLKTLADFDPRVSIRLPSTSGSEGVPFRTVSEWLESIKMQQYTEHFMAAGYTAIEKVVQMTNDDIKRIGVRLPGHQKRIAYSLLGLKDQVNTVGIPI
Source text: as §1, §2, §3

[27] = target: T22, HER4 (Homo sapiens, UniProt Q15303)
T22 construct: MRC Dundee (screening service)
Source text: as §1, §2, §3

[28] = target: DAPK1 (Homo sapiens, UniProt P53355)
Source text: as §1, §2, §3

[29] = target: T23, FGF-R1 (Homo sapiens, UniProt P11362)
T23 construct: purchased MRC in Dundee (Premier Screen service)
Source text: as §1, §2, §3

[30] = target: T24, EPH-B4 (Homo sapiens, UniProt P54760)
T24 construct: MRC in Dundee (screening service)
Source text: as §1, §2, §3

[31] = target: T25, YES1 (Homo sapiens, UniProt P07947)
T25 construct: MRC Dundee (screening service)
Source text: as §1, §2, §3

[32] = target: MKK1 (Homo sapiens, UniProt Q02750)
Source text: as §1, §2, §3

[33] = target: T26, MAP4K5 (Homo sapiens, UniProt Q9Y4K4)
T26 construct: purchased MRC Dundee, Premier Screen (contract screening service)
Source text: as §1, §2, §3

[34] = target: T27, Aurora A (Homo sapiens, UniProt O14965)
T27 construct: MRC in Dundee (screening service)
Source text: as §1, §2, §3

[35] = target: T28, TIE2 (Homo sapiens, UniProt Q02763)
T28 construct: MRC Dundee (screening service)
Source text: as §1, §2, §3

For `O=C(Nc1cc(C(F)(F)F)cc(C(F)(F)F)c1)Nc1ccc(Br)cc1-c1nnn[nH]1` [SCO-101], the remaining activity at 10 µM [1] was 101%, the remaining activity at 10 µM [2] was 101% and the remaining activity at 10 µM [3] was 95%. For the same compound, the remaining activity at 10 µM [4] was 121%, the remaining activity at 10 µM [5] was 114% and the remaining activity at 10 µM [6] was 134%. For the same compound, the remaining activity at 10 µM [7] was 103%, the remaining activity at 10 µM [8] was 110% and the remaining activity at 10 µM [9] was 95%. The remaining activity at 10 µM [10] was 99%, the remaining activity at 10 µM [11] was 74% and the remaining activity at 10 µM [12] was 59%. The remaining activity at 10 µM [13] was 92%, the remaining activity at 10 µM [14] was 38% and the remaining activity at 10 µM [15] was 77%. It also gave a remaining activity at 10 µM [16] of 101%, a remaining activity at 10 µM [17] of 113% and a remaining activity at 10 µM [18] of 115%. For the same compound, the remaining activity at 10 µM [19] was 57%, the remaining activity at 10 µM [20] was 97% and the remaining activity at 10 µM [21] was 119%. It also gave a remaining activity at 10 µM [22] of 108%, a remaining activity at 10 µM [23] of 106% and a remaining activity at 10 µM [24] of 195%. The remaining activity at 10 µM [25] was 126%, the remaining activity at 10 µM [26] was 60% and the remaining activity at 10 µM [27] was 98%. For the same compound, the remaining activity at 10 µM [28] was 112%, the remaining activity at 10 µM [29] was 123% and the remaining activity at 10 µM [30] was 86%. It also gave a remaining activity at 10 µM [31] of 99%, a remaining activity at 10 µM [32] of 118% and a remaining activity at 10 µM [33] of 108%. It also gave a remaining activity at 10 µM [34] of 94% and a remaining activity at 10 µM [35] of 95%.
